Test [1] addresses T1, human GLP-1R (Homo sapiens, UniProt P43220). Kind of test: Human GLP-1 Receptor HEK293 cell cAMP assay, 581 fmol/mg GLP-1R expression density. Particulars: HEK293 cell line with 581 fmol/mg expression density of GLP-1R; for EC50: geometric mean, read-out: EC50 nM (SEM, n), intracellular cAMP response, relative EC50; for Emax: read-out: Emax % (SEM, n), intracellular cAMP response. It is filed as cell-based. On the set-up: expressed in transfected cells; host or cells: HEK293 clonal cell line. A digest of the protocol: (§1)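 HEK293 clonal lines expressing human GLP-1R, 20-point compound curves, 30 min at 37° C in DMEM with 0.1% casein, 250 μM IBMX, 0.5% DMSO. cAMP by HTRF, converted via standard curve to % of maximal human GLP-1(7-36)NH2 response; relative EC50 and Emax from four-parameter logistic fit.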
(In general: Cyclic AMP is a second messenger, typically raised through Gs and lowered through Gi signalling.)

Test [2] concerns the target T1, human GLP-1R. Kind of test: Human GLP-1 Receptor HEK293 cell cAMP assay, 104 fmol/mg GLP-1R expression density. It counts as cell-based. The arrangement: expressed in transfected cells; host or cells: HEK293 clonal cell line. The settings on record: HEK293 cell line with 104 fmol/mg expression density of GLP-1R; for EC50: geometric mean, read-out: EC50 nM (SEM, n), intracellular cAMP response, relative EC50; for Emax: read-out: Emax % (SEM, n), intracellular cAMP response. The method, boiled down: as §1

Where [3] appears, read: percent of maximal response to GLP-1(7-36)NH2, arithmetic mean.

Data on 15 compounds can be found in patent US20240343740A1, “MACROCYCLIC GLUCAGON-LIKE PEPTIDE 1 RECEPTOR AGONISTS” (Eli Lilly and Company, priority 2021, published 2024).

T1 sequence (P43220 24-463): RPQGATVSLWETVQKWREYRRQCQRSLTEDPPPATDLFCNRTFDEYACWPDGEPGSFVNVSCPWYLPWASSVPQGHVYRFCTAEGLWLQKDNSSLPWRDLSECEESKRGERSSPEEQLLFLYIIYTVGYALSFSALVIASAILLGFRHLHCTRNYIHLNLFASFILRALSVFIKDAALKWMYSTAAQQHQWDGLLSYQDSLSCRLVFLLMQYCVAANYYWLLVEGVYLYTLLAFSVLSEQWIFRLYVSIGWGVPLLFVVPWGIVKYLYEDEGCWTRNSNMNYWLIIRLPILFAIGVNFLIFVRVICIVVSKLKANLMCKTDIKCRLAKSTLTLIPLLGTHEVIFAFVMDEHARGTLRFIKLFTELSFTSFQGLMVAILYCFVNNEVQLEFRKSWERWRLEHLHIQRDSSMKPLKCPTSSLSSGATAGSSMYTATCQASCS

For the compound `COCCOc1cc(C(=O)O)cc2c1nc(Cc1ccc3cc1COCCc1cc(C#N)ccc1COc1cccc-3n1)n2C[C@@H]1CCO1` [Example 64, (S)-2-((5^4-Cyano-3,8-dioxa-2(2,6)-pyridina-1(1,3),5(1,2)-dibenzenacyclononaphane-1^4-yl)methyl)-4-(2-methoxyethoxy)-1-(oxetan-2-ylmethyl)-1H-benzo[d]imidazole-6-carboxylic acid], the half-maximal effective concentration (EC50) stood at 2.13 nM on human GLP-1R [1] and 5.53 nM at human GLP-1R [2]. The maximal effect (Emax) on human GLP-1R [1] (setting [3]) stood at 110%; at human GLP-1R [2] (setting [3]), 87.3%.
For the compound `COCCOc1cc(C(=O)O)cc2c1nc(Cc1ccc3cc1COCCc1cc(C#N)ccc1COc1ccc(F)c-3n1)n2C[C@@H]1CCO1` [Example 49, (S)-2-((5^4-Cyano-2^3-fluoro-3,8-dioxa-2(2,6)-pyridina-1(1,3),5(1,2)-dibenzenacyclononaphane-1^4-yl)methyl)-4-(2-methoxyethoxy)-1-(oxetan-2-ylmethyl)-1H-benzo[d]imidazole-6-carboxylic acid], the concentration giving a half-maximal response (EC50) came to 2.33 nM on human GLP-1R [1] and 8.39 nM at human GLP-1R [2]. The Emax on human GLP-1R [1] (setting [3]) stood at 112%; on human GLP-1R [2] (setting [3]) it was 85.5%.
For the compound `O=C(O)c1ccc2nc(Cc3ccc4cc3OCCCc3cc(-n5cnc(F)c5)ccc3COc3cccc-4n3)n(C[C@@H]3CCO3)c2c1` [Example 66, (S)-2-((5^4-(4-Fluoro-1H-imidazol-1-yl)-3,9-dioxa-2(2,6)-pyridina-1(1,3),5(1,2)-dibenzenacyclononaphane-1^4-yl)methyl)-1-(oxetan-2-ylmethyl)-1H-benzo[d]imidazole-6-carboxylic acid], the figures for the EC50 on human GLP-1R [1] and at human GLP-1R [2] were 13.4 nM and 54.5 nM, respectively. The maximal response (Emax) turned out to be 118% on human GLP-1R [1] (setting [3]) and 82.5% at human GLP-1R [2] (setting [3]).
On to `COCCOc1cc(C(=O)O)cc2c1nc(Cc1ccc3cc1COCCc1cc(ccc1C#N)COc1cccc-3n1)n2C[C@@H]1CCO1` [Example 65, (S)-2-((5^4-Cyano-3,8-dioxa-2(2,6)-pyridina-1,5(1,3)-dibenzenacyclononaphane-1^4-yl)methyl)-4-(2-methoxyethoxy)-1-(oxetan-2-ylmethyl)-1H-benzo[d]imidazole-6-carboxylic acid], for which the concentration giving a half-maximal response (EC50) stood at 1.86 nM on human GLP-1R [1] and 4.62 nM on human GLP-1R [2]. Also, the maximum response (Emax) came out at 110% at human GLP-1R [1] (setting [3]) and 98.2% at human GLP-1R [2] (setting [3]).
As for `Nc1cc(-c2ccc3c(c2)CCCOc2cc(ccc2Cc2nc4ccc(C(=O)O)cc4n2C[C@@H]2CCO2)-c2cccc(n2)OC3)ccn1` [Example 78, (S)-2-((5^4-(2-Aminopyridin-4-yl)-3,9-dioxa-2(2,6)-pyridina-1(1,3),5(1,2)-dibenzenacyclononaphane-1^4-yl)methyl)-1-(oxetan-2-ylmethyl)-1H-benzo[d]imidazole-6-carboxylic acid], the 50% effective concentration (EC50) on human GLP-1R [1] was found to be 95.8 nM; at human GLP-1R [2], 248 nM. Moreover, the Emax on human GLP-1R [1] (setting [3]) was 99.8%; at human GLP-1R [2] (setting [3]), 74.1%.
For the compound `COCCOc1cc(C(=O)O)cc2c1nc(Cc1cc(F)c3cc1COCc1cc(-c4ccc(=O)n(C)c4)ccc1COc1cccc-3n1)n2C[C@@H]1CCO1` [Example 75, (S)-2-((1^6-Fluoro-5^4-(1-methyl-6-oxo-1,6-dihydropyridin-3-yl)-3,7-dioxa-2(2,6)-pyridina-1(1,3),5(1,2)-dibenzenacyclooctaphane-1^4-yl)methyl)-4-(2-methoxyethoxy)-1-(oxetan-2-ylmethyl)-1H-benzo[d]imidazole-6-carboxylic acid], the figures for the EC50 on human GLP-1R [1] and on human GLP-1R [2] were 6.33 nM and 17.4 nM, respectively. Besides, the results for the Emax at human GLP-1R [1] (setting [3]) and at human GLP-1R [2] (setting [3]) were 93.9% and 71.6%, respectively.
As for “(S)-2-((5^4-Cyano-1^6,2^3-difluoro-3,8-dioxa-2(2,6)-pyridina-1(1,3),5(1,2)-dibenzenacyclononaphane-1^4-yl)methyl)-4-(2-methoxyethoxy)-1-(oxetan-2-ylmethyl)-1H-benzo[d]imidazole-6-carboxylic acid [Example 60]”, the concentration for a half-maximal effect (EC50) at human GLP-1R [1] is 0.938 nM; at human GLP-1R [2] it was 2.99 nM. The results for the “Emax % (SEM, n), intracellular cAMP response” value on human GLP-1R [1] (setting [3]) and on human GLP-1R [2] (setting [3]) were 109% and 87.9%, respectively.
Consider `N#Cc1ccc2c(c1)CCOc1cc(c(F)cc1Cc1nc3ccc(C(=O)O)cc3n1C[C@@H]1CCO1)-c1cccc(n1)OC2` [Example 20, (S)-2-((5^4-Cyano-1^6-fluoro-3,8-dioxa-2(2,6)-pyridina-1(1,3),5(1,2)-dibenzenacyclooctaphane-1^4-yl)methyl)-1-(oxetan-2-ylmethyl)-1H-benzo[d]imidazole-6-carboxylic acid], for which the figures for the EC50 on human GLP-1R [1] and at human GLP-1R [2] were 58 nM and 226 nM, respectively. The maximal response (Emax) on human GLP-1R [1] (setting [3]) stood at 105%; at human GLP-1R [2] (setting [3]), 89.9%.
Regarding `Cn1cc(-c2ccc3c(c2)CCCOc2cc(ccc2Cc2nc4ccc(C(=O)O)cc4n2C[C@@H]2CCO2)-c2cccc(n2)OC3)ccc1=O` [Example 36, (S)-2-((5^4-(1-Methyl-6-oxo-1,6-dihydropyridin-3-yl)-3,9-dioxa-2(2,6)-pyridina-1(1,3),5(1,2)-dibenzenacyclononaphane-1^4-yl)methyl)-1-(oxetan-2-ylmethyl)-1H-benzo[d]imidazole-6-carboxylic acid], the concentration giving a half-maximal response (EC50) stood at 44 nM on human GLP-1R [1] and 149 nM on human GLP-1R [2]. Also, the maximal response (Emax) was 108% at human GLP-1R [1] (setting [3]) and 80% at human GLP-1R [2] (setting [3]).
For the compound `N#Cc1ccc2c(c1)CCCOc1cc(ccc1Cc1nc3ccc(C(=O)O)nc3n1C[C@@H]1CCO1)-c1cccc(n1)OC2` [Example 6, (S)-2-((5^4-Cyano-3,9-dioxa-2(2,6)-pyridina-1(1,3),5(1,2)-dibenzenacyclononaphane-1^4-yl)methyl)-3-(oxetan-2-ylmethyl)-3H-imidazo[4,5-b]pyridine-5-carboxylic acid], the 50% effective concentration (EC50) amounted to 166 nM at human GLP-1R [1] and 1020 nM on human GLP-1R [2]. Further, the Emax amounted to 97.2% on human GLP-1R [1] (setting [3]) and 89.1% on human GLP-1R [2] (setting [3]).
On the same counts, the results for `COc1cc(C(=O)O)cc2c1nc(Cc1cc(C)c3cc1OCCCc1cc(F)ccc1COc1cccc-3n1)n2C[C@@H]1CCO1` [Example 22, (S)-4-Methoxy-2-((1^6-methyl-5^4-(fluoro)-3,9-dioxa-2(2,6)-pyridina-1(1,3),5(1,2)-dibenzenacyclononaphane-1^4-yl)methyl)-1-(oxetan-2-ylmethyl)-1H-benzo[d]imidazole-6-carboxylic acid] are 2.86 nM, 10.6 nM, 112% and 80.9%.
On the same counts, the results for `CCn1cncc1Cn1c(Cc2ccc3cc2OCCCc2cc(C#N)ccc2COc2cccc-3n2)nc2ccc(C(=O)O)cc21` [Example 11, 2-((5^4-cyano-3,9-dioxa-2(2,6)-pyridina-1(1,3),5(1,2)-dibenzenacyclononaphane-1^4-yl)methyl)-1-((1-ethyl-1H-imidazol-5-yl)methyl)-1H-benzo[d]imidazole-6-carboxylic acid] are 35 nM, 194 nM, 92% and 81%.
Turning to `COc1cc(C(=O)O)cc2c1nc(Cc1cc(C)c3cc1OCCCc1cc(C(F)(F)F)ccc1COc1cccc-3n1)n2C[C@@H]1CCO1` [Example 16, (S)-4-Methoxy-2-((1^6-methyl-5^4-(trifluoromethyl)-3,9-dioxa-2(2,6)-pyridina-1(1,3),5(1,2)-dibenzenacyclononaphane-1^4-yl)methyl)-1-(oxetan-2-ylmethyl)-1H-benzo[d]imidazole-6-carboxylic acid], the EC50 on human GLP-1R [1] was determined as 1.95 nM; on human GLP-1R [2] it was 4.02 nM. In addition, the Emax on human GLP-1R [1] (setting [3]) is 125%; on human GLP-1R [2] (setting [3]), 86.7%.
In the same order, the values of `COCCOc1cc(C(=O)O)cc2c1nc(Cc1ccc3cc1COCCc1cc(C(F)(F)F)ncc1COc1cccc-3n1)n2C[C@@H]1CCO1` [Example 52, (S)-4-(2-Methoxyethoxy)-1-(oxetan-2-ylmethyl)-2-((5^6-(trifluoromethyl)-3,8-dioxa-2(2,6),5(3,4)-dipyridina-1(1,3)-benzenacyclononaphane-1^4-yl)methyl)-1H-benzo[d]imidazole-6-carboxylic acid] are 58.4 nM, 153 nM, 108% and 84.3%.
On the same counts, the results for `O=C(O)c1ccc2nc(Cc3ccc4cc3OCCCc3cc(-c5cnn(CC6COC6)c5)ccc3COc3cccc-4n3)n(C[C@@H]3CCO3)c2c1` [Example 28, (S)-1-(Oxetan-2-ylmethyl)-2-((5^4-(1-(oxetan-3-ylmethyl)-1H-pyrazol-4-yl)-3,9-dioxa-2(2,6)-pyridina-1(1,3),5(1,2)-dibenzenacyclononaphane-1^4-yl)methyl)-1H-benzo[d]imidazole-6-carboxylic acid] are 98.4 nM, 287 nM, 104% and 74.9%.

Usually EC50 stands for the concentration that produces a half-maximal response. In general, Emax refers to the maximal effect, on the per cent scale that the assay sets.
